We go through 5 compounds from patent publication EP0019589A1, “Tripeptide derivatives and their use in a process for determining enzymes” (Pentapharm A.G., priority 1979, dated 1980).

Assay type in all cases: biochemical
One test deals with T1, Humanthrombin (Homo sapiens, UniProt P00734).
T1 construct: Humanplasmin und hu-manem NIH-Thrombin
In words: Cleavage of chromogenic substrate by human NIH thrombin. To be noted: 1 NIH-Einheit human thrombin, per min; Substratkonzentration 2 x 10^-4 molar. The essentials: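 Thrombin hydrolysis of chromogenic p-nitroanilide substrate read spectrophotometrically at 405 nm; fluorogenic naphthylamine, methylcoumarylamine or di(methoxycarbonyl)phenylamine substrates read continuously by fluorescence emission at 400-470 nm. Activity taken as product formed per unit time; 1 µmol product/min defined as 1 enzyme unit for a given substrate.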

In another test the target is T2, Urinkallikrein (Homo sapiens, UniProt P06870).
T2 construct: 1 ml Urin und 1 ml TRIS-Imidazol-Puffer mit pH 7,9; from tissue; host or cells: human urine
Briefly: Cleavage of chromogenic substrate by urinary kallikrein in human urine. As to conditions: 1 ml human urine (pooled morning urine of healthy persons), per min; Substratkonzentration 2 x 10^-4 molar.

Test [1] deals with T3, Submandibularis-Kallikrein (Homo sapiens, UniProt P06870).
T3 construct: Man mischt 0,5 ml Sputum mit 2 ml TRIS-Imidazol-Puffer; from tissue; host or cells: human sputum
In words: Cleavage of chromogenic substrate by submandibular (glandular) kallikrein in human sputum. To be noted: 1 ml human sputum, per min; Substratkonzentration 2 x 10^-4 molar. The essentials: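 Sputum mixed with TRIS-imidazole buffer (ionic strength 1.0), preincubated 5 min at 37°C and centrifuged; supernatant incubated with aqueous substrate solution (2 x 10^-3 M, stock). p-Nitroaniline release followed continuously at 405 nm for 5-10 min; activity expressed as mU per ml sputum from ΔOD/min.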

The next test deals with T4, Humanplasmin (Homo sapiens, UniProt P00747).
T4 construct: da bei der Aktivierung aus 1 Molekül Plasminogen 1 Molekül Plasmin entsteht
Briefly: Cleavage of chromogenic substrate by human plasmin. As to conditions: 1 CU-Einheit human plasmin, per min; Substratkonzentration 2 x 10^-4 molar.

Non-standard residues stand in square brackets, D forms with d. Residues, ends and D or L forms follow the SMILES beside them. *: point of attachment. Cha = N[C@@H](CC1CCCCC1)C(=O)O; dCha = N[C@H](CC1CCCCC1)C(=O)O; dChg = N[C@@H](C(=O)O)C1CCCCC1; pNA = O=[N+]([O-])c1ccc(N*)cc1; dNle = CCCC[C@@H](N)C(=O)O; Abu = CC[C@H](N)C(=O)O

T4 sequence (P00747 581-810 limits assumed): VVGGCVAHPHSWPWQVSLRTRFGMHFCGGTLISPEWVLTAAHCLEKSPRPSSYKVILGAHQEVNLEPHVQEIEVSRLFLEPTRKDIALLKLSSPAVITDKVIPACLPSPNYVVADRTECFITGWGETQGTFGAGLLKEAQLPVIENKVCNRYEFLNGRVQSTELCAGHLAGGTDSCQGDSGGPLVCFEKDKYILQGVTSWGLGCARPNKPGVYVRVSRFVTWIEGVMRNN
T4 sequence (P00747 97-580 partner limits assumed): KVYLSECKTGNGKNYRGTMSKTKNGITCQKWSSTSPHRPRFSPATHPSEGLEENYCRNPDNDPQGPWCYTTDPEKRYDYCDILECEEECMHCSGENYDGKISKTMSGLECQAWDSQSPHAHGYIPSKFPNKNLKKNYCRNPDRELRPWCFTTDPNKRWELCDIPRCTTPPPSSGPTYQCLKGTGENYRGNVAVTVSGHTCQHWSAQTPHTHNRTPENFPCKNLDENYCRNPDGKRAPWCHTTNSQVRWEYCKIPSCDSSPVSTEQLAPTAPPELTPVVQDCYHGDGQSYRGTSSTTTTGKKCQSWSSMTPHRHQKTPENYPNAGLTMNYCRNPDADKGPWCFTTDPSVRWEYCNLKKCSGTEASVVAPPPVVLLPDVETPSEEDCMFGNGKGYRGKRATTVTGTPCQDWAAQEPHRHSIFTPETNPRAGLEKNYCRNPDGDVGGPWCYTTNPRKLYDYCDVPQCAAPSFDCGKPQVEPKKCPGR
T2 sequence (P06870 25-262): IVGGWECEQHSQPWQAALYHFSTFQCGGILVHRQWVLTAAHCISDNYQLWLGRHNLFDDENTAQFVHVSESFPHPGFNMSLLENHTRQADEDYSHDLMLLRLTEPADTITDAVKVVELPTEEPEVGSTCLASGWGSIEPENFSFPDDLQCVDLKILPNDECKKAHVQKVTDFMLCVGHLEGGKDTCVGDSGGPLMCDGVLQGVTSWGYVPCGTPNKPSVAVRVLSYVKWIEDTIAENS
T3 sequence (P06870 25-262): as above

Turning to `CC(C)C[C@@H](N)C(=O)N[C@@H](CC1CCCCC1)C(=O)N[C@@H](CCCCN)C(=O)Nc1ccc([N+](=O)[O-])cc1` [Beispiel 73, 2HBr.H-D-Leu-CHA-Lys-pNA] (H-[dL]-[Cha]-Lys-pNA), on Humanthrombin, the “Menge des durch 1 NIH-Einheit Thrombin pro Min. freigesetzten Spaltproduktes R-NH2 in Nanomol (Humanthrombin)” value is given as 3,4 Nanomol. The “Menge des durch 1 ml Humanurin pro Min. freigesetzten Spaltproduktes R-NH2 in Nanomol (Urinkallikrein)” value on Urinkallikrein was 1,73 Nanomol. In test [1], the “Menge des durch 1 ml Humansputum pro Min. freigesetzten Spaltproduktes R-NH2 in Nanomol (Submandibularis-Kallikrein)” value was 19,3 Nanomol. At Humanplasmin, the “Menge des durch 1 CU-Einheit Humanplasmin pro Min. freigesetzten Spaltproduktes R-NH2 in Nanomol (Humanplasmin)” value was 778 Nanomol.

On to `CCCC[C@@H](N)C(=O)N[C@@H](CC1CCCCC1)C(=O)N[C@@H](CCCCN)C(=O)Nc1ccc([N+](=O)[O-])cc1` [Beispiel 74, 2HBr.H-D-Nleu-CHA-Lys-pNA] (H-[dNle]-[Cha]-Lys-pNA), for which the “Menge des durch 1 NIH-Einheit Thrombin pro Min. freigesetzten Spaltproduktes R-NH2 in Nanomol (Humanthrombin)” value at Humanthrombin is 3,9 Nanomol. The “Menge des durch 1 ml Humanurin pro Min. freigesetzten Spaltproduktes R-NH2 in Nanomol (Urinkallikrein)” value on Urinkallikrein was 0,77 Nanomol. Besides, the “Menge des durch 1 ml Humansputum pro Min. freigesetzten Spaltproduktes R-NH2 in Nanomol (Submandibularis-Kallikrein)” value in test [1] was 8,4 Nanomol. For the same compound, the “Menge des durch 1 CU-Einheit Humanplasmin pro Min. freigesetzten Spaltproduktes R-NH2 in Nanomol (Humanplasmin)” value on Humanplasmin stood at 695 Nanomol.

As for `CC[C@H](NC(=O)[C@H](N)C1CCCCC1)C(=O)N[C@@H](CCCNC(=N)N)C(=O)Nc1ccc([N+](=O)[O-])cc1` [Beispiel 75, 2HBr.H-D-CHG-But-Arg-pNA] (H-[dChg]-[Abu]-Arg-pNA), on Humanthrombin, the “Menge des durch 1 NIH-Einheit Thrombin pro Min. freigesetzten Spaltproduktes R-NH2 in Nanomol (Humanthrombin)” value is on record as 102,9 Nanomol. Besides, on Urinkallikrein, the “Menge des durch 1 ml Humanurin pro Min. freigesetzten Spaltproduktes R-NH2 in Nanomol (Urinkallikrein)” value is 0,51 Nanomol. The “Menge des durch 1 ml Humansputum pro Min. freigesetzten Spaltproduktes R-NH2 in Nanomol (Submandibularis-Kallikrein)” value in test [1] is 14,5 Nanomol. Moreover, the “Menge des durch 1 CU-Einheit Humanplasmin pro Min. freigesetzten Spaltproduktes R-NH2 in Nanomol (Humanplasmin)” value at Humanplasmin came to 439 Nanomol.

As to `CC[C@H](NC(=O)[C@H](N)CC1CCCCC1)C(=O)N[C@@H](CCCNC(=N)N)C(=O)Nc1ccc([N+](=O)[O-])cc1` [Beispiel 76, 2HBr.H-D-CHA-But-Arg-pNA] (H-[dCha]-[Abu]-Arg-pNA), the “Menge des durch 1 NIH-Einheit Thrombin pro Min. freigesetzten Spaltproduktes R-NH2 in Nanomol (Humanthrombin)” value at Humanthrombin is listed as 108,9 Nanomol. Further, the “Menge des durch 1 ml Humanurin pro Min. freigesetzten Spaltproduktes R-NH2 in Nanomol (Urinkallikrein)” value on Urinkallikrein is recorded as 0,51 Nanomol. Besides, the “Menge des durch 1 ml Humansputum pro Min. freigesetzten Spaltproduktes R-NH2 in Nanomol (Submandibularis-Kallikrein)” value in test [1] is on record as 18,1 Nanomol. The “Menge des durch 1 CU-Einheit Humanplasmin pro Min. freigesetzten Spaltproduktes R-NH2 in Nanomol (Humanplasmin)” value on Humanplasmin was 478 Nanomol.

For the compound `CC[C@H](NC(=O)[C@H](N)CC1CCC(O)CC1)C(=O)N[C@@H](CCCNC(=N)N)C(=O)Nc1ccc([N+](=O)[O-])cc1` (stereo partly drawn) [Beispiel 77, 2HBr.H-D-CHT-But-Arg-pNA], the “Menge des durch 1 NIH-Einheit Thrombin pro Min. freigesetzten Spaltproduktes R-NH2 in Nanomol (Humanthrombin)” value on Humanthrombin is 114,2 Nanomol. Besides, at Urinkallikrein, the “Menge des durch 1 ml Humanurin pro Min. freigesetzten Spaltproduktes R-NH2 in Nanomol (Urinkallikrein)” value was 0,64 Nanomol. The “Menge des durch 1 ml Humansputum pro Min. freigesetzten Spaltproduktes R-NH2 in Nanomol (Submandibularis-Kallikrein)” value in test [1] was 18,2 Nanomol. Also, the “Menge des durch 1 CU-Einheit Humanplasmin pro Min. freigesetzten Spaltproduktes R-NH2 in Nanomol (Humanplasmin)” value at Humanplasmin stood at 463 Nanomol.
